Measurements: patent US10667516B2, “Use of 3-isoxazolidinones as selective herbicides in grass and Brassica crops” (FMC Corporation, priority 2011, dated 2020)

Tested on: chickweed
Test: Volatility evaluation (phytotoxic injury of chickweed by volatilization from treated soil)
Conditions: formulations containing the non-encapsulated compound
Description: Chickweed is very sensitive to clomazone and is a good indicator for bleaching compound volatility. […] These formulations are the reference standards against which the experimental formulations are compared. Four inch plastic pots were fitted with a basket style coffee filter, cut to size, placed in the bottom of each pot to cover the drainage holes and to stop soil from exiting the bottom of the pot. Each pot was filled with sandy loam soil that was sieved using a #10 mesh sieve to remove any large soil particles and debris. Filled soil pots were lightly watered prior to treatment application. The test solutions were applied to the soil surface using the DeVries Generation III sprayer, two replicates per test solution, at a rate of 0.25 g ai/ha. Each replicate test was set-up by placing an empty four inch plastic pot onto a greenhouse bench. Pots containing mature chickweed, about 2 inches in height, were placed around the empty pot in an eight spoke pattern. […] The untreated chickweed plants were evaluated for phytotoxic injury at 14 days after treatment. Volatility was evaluated by measuring the distance (cm) from the center of the treated soil pot to the distal point where bleaching effects were observed on each spoke. All eight spokes for each treatment were evaluated. The amount of volatility was determined by calculating the total square centimeters of phytotoxic injury per treatment. […]

Row | SMILES | control of volatility compared to the non-encapsulated clomazone formulation
1 | CC1(C)CON(Cc2cc(Cl)ccc2Cl)C1=O [2,5-Cl, 2-(2,5-dichlorophenyl)methyl-4,4-dimethyl-3-isoxazolidone] | significant control of volatility
2 | CC1(C)CON(Cc2ccc(Cl)cc2Cl)C1=O [2,4-Cl, 2-(2,4-dichlorophenyl)methyl-4,4-dimethyl-3-isoxazolidone] | significant control of volatility
